Target: Proto-oncogene tyrosine-protein kinase Src (Homo sapiens, UniProt P12931)
Test: Kinase inhibition Assay
Conditions: pH 7.5; 30 °C
Experimental: Src kinase activity was measured in an ELISA format. IC50 is the inhibitor concentration which inhibits 50% of kinase activity that catalyzes the transfer of the terminal phosphate from ATP to the substrate.

Chain of Proto-oncogene tyrosine-protein kinase Src (P12931 2-536 limits assumed): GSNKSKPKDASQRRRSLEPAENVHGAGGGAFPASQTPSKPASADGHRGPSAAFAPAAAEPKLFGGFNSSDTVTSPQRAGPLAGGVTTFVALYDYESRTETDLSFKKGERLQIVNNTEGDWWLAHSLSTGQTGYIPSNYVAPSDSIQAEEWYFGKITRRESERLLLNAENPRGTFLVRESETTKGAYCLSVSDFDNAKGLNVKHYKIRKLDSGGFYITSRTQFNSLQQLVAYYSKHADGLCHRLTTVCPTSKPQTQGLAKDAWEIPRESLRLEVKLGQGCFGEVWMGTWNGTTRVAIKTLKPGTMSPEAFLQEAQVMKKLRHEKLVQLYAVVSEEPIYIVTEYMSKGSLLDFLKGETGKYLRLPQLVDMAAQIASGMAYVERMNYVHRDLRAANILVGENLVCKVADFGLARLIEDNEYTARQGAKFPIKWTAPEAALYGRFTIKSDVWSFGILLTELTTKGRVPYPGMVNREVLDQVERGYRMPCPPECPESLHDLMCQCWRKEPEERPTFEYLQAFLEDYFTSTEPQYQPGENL

IC50: > 10 µM
Compound: COc1cc2ncc(C#N)c(NCc3cc(OC)c(OC)c(OC)c3)c2cc1OC [6,7-dimethoxy-4-{[(3,4,5-trimethoxyphenyl)methyl]amino}quinoline-3-carbonitrile]

Source: BindingDB's records for doi:10.1016/s0960-894x(00)00493-5 (Wyeth-Ayerst Research, 2000)
